# Literature values, collected in PMC12281572.
# Where “and” joins values, the source holds several entries; their conditions need not be identical. Equal values may be shown once.
# Assay: FTIR, 4-fluorophenol as donor (the pK_BHX database, per the paper)
# Conditions: CCl4; 25 C
row,"pK_BHX (log10 Kf of the 1:1 H-bond complex with 4-fluorophenol, by FTIR)",Structure (SMILES)
1,1.23 log units,CN(C)c1ccc(C#N)cc1
2,2.68 log units,CC1CCN(c2ccncc2)CC1
3,2.23 log units,CN(C)C(=O)c1ccccc1
4,-0.74 log units,CC1=CCCCC1
5,0.3 log units,CC(C)CN(C(C)C)C(C)C
6,1.61 log units,CC(=O)c1ccc(N2CCOCC2)cc1
7,2.38 log units,CN1CCCC1=O
8,1.64 log units,CC(C)(C)C(=O)N(c1ccccc1)c1ccccc1
9,1.04 log units,CN(C)C(=O)C(F)(F)F
10,0.92 log units,CC(=O)c1ccc(C(C)=O)cc1
11,1.01 log units,CCOC(=O)c1cccc(C)c1
12,2.72 log units,CN=C(c1ccc(C)cc1)N(C)C
13,1.49 log units,COC(=O)c1ccccc1OC
14,-0.08 log units,COc1cccc(OC)c1
15,1.83 log units,CNC(=Nc1ccccc1)c1ccccc1
16,3.16 log units,CN=C(N(C)C)N(C)C
17,0.39 log units,c1cc2c3c(c1)CCCN3CCC2
18,1.29 log units,c1ccc(N=C(Nc2ccccc2)c2ccccc2)cc1
19,-0.23 log units,CC(C)(C)c1cc(C(C)(C)C)cc(C(C)(C)C)c1
20,1.96 log units,CNC=O
21,1.42 log units,Cc1ccc(N=C(c2ccccc2)N(C)c2ccc(Br)cc2)cc1
22,1.05 log units,CC(=Nc1cccc(Cl)c1)N(C)c1cccc(Cl)c1
23,2.1 log units,CN(C)C(=O)C(C)(C)C
24,2.36 log units,Cc1ccc(CN=CN(C)C)cc1
25,-0.02 log units,CSCc1ccccc1
26,-0.37 log units,CCCCCI

row,"pK_BHX (log10 Kf of the 1:1 H-bond complex with 4-fluorophenol, by FTIR)",Structure (SMILES)
1,2.48 log units,C=CCN=CN(C)C
2,-0.45 log units,Cc1cc(C(C)(C)C)nc(C(C)(C)C)c1
3,1.23 log units,CN1C(C)(C)CCCC1(C)C
4,0.68 log units,C#CC(C)=O
5,1.4 log units,Cc1cccc(NC(=Nc2ccccc2)c2ccccc2)c1
6,0.97 log units,CC(C)(C)OC(=O)c1ccccc1
7,1.15 log units,Cc1ccc(C(=S)N(C)C)cc1
8,1.24 log units,CC(=Nc1cccc(Cl)c1)N(C)c1ccccc1
9,-0.34 log units,CCC(CC)N(C(C)C)C(C)C
10,1.49 log units,CC(=NC(=S)SCc1ccccc1)N(C)C
11,0.73 log units,N#Cc1ccc(Br)cc1
12,2.79 log units,CN1CCCN(C)C1=O
13,0.86 log units,Cc1cccc(C)c1C#N
14,0.17 log units,CN(C)c1ccc(Br)cc1
15,1.54 log units,Clc1ccncc1
16,2.43 log units,CN(C)C=NN(C)C
17,1.29 log units,Cc1cnc(C)cn1
18,1.05 log units,Clc1cccc(N=C(Nc2ccccc2)c2ccccc2)c1
19,2.03 log units,CC(C)N(C(=O)C(C)(C)C)C(C)C
20,2.11 log units,CC(C)(C)c1ccncc1
21,1.09 log units,CCOC(=O)C(C)C
22,-0.28 log units,CC(C)(C)Cl
23,2.11 log units,CC(C)N(C)C
24,1.66 log units,Fc1cccc(C2=NCCC2)c1
25,2.93 log units,c1cc(N2CCCC2)ccn1
26,1.65 log units,C=Cc1ccccn1

row,"pK_BHX (log10 Kf of the 1:1 H-bond complex with 4-fluorophenol, by FTIR)",Structure (SMILES)
1,0.55 log units,COC(OC)OC
2,3.16 log units,O=P(c1ccccc1)(c1ccccc1)c1ccccc1
3,1.13 log units,C1CCC2OC2C1 (centres unmarked)
4,0.09 log units,FC1CCCCC1
5,1.31 log units,Brc1cccnc1
6,0.24 log units,CSC1CCCCC1
7,2.0 log units,CN(C)C=NCc1cc(Cl)cc(Cl)c1
8,1.47 log units,Cc1cc(C)ncn1
9,1.65 log units,CC(=Nc1ccccc1)N(C)c1ccccc1
10,-0.32 log units,c1ccc(C2CCCCC2)cc1
11,-0.27 log units,ClC1CCCCC1
12,0.99 log units,CN(C(=Nc1ccc(Br)cc1)c1ccccc1)c1ccc(Br)cc1
13,0.97 log units,N#CC1CCCCC1
14,2.41 log units,CN(C)C=NC(C)(C)C
15,0.86 log units,CC(=O)c1cccc(C(C)=O)c1
16,1.13 log units,Clc1ccc(N=C(Nc2ccccc2)c2ccccc2)cc1
17,1.22 log units,CC1COC(=O)O1 (centres unmarked)
18,1.29 log units,CCN(CC)C(=S)N(C)C
19,1.0 log units,N#CC12CC3CC(CC(C3)C1)C2
20,-0.33 log units,CC(C)(C)I
21,2.06 log units,CC(=NC(=S)N(C)C)N(C)C
22,2.58 log units,CN(N)c1ccncc1
23,2.07 log units,CCN(CC)C(=O)N(c1ccccc1)c1ccccc1
24,2.16 log units,CC(=O)N1CCOCC1
25,0.88 log units,CCOC(=O)c1ccc(F)cc1
26,-0.85 log units,CC(C)=C(C)C

row,Structure (SMILES),"pK_BHX (log10 Kf of the 1:1 H-bond complex with 4-fluorophenol, by FTIR)"
1,c1ccc(Nc2ccccc2)cc1,-0.3 log units
2,CN(C)C(=S)Cl,0.5 log units
3,c1ccccc1,-0.49 log units
4,OCC(F)(F)F,-0.28 log units
5,COc1ccc(C(=O)c2ccc(OC)cc2)cc1,1.49 log units
6,CC(=O)c1cccc([N+](=O)[O-])c1,0.18 log units
7,COc1ccccc1C(C)=O,1.34 log units
8,c1ccc2c(c1)cnc1ccccc12,1.87 log units
9,CN(C)Cc1ccccc1,1.59 log units
10,CC(=O)C(C)=O,0.23 log units
11,CCCCN,2.19 log units
12,Clc1cccnc1,1.31 log units
13,CNC1CCCCC1,2.24 log units
14,Cc1ccnc2c1ccc1c(C)ccnc12,3.34 log units
15,CC(C)N,2.2 log units
16,CCCCO,1.02 log units
17,CCCCCF,-0.06 log units
18,COc1ccc(Cl)cc1,-0.25 log units

row,Structure (SMILES),"pK_BHX (log10 Kf of the 1:1 H-bond complex with 4-fluorophenol, by FTIR)"
1,CC12CCC(CC1)C(C)(C)O2,1.38 log units
2,Nc1cccc(F)c1,0.2 log units
3,NCCCCN,2.21 log units
4,Cc1ccc(O)cc1,0.03 log units
5,CCOC(=O)C(=O)OCC,0.65 log units
6,C=CCN(CC=C)CC=C,1.34 log units
7,CN(C)C(=S)N(C)C,1.35 log units
8,CN(C)C(=O)CCl,1.74 log units
9,c1ccc2ncccc2c1,1.89 log units
10,CC(=O)n1ccnc1,1.86 log units
11,Oc1ccc(F)cc1,-0.12 log units
12,CCN(C(=O)N(CC)c1ccccc1)c1ccccc1,2.16 log units
13,NCCN,2.25 log units
14,c1ccc(Sc2ccccc2)cc1,-0.51 log units and -0.93 log units
15,Cc1ccc(C)cc1,-0.29 log units
16,O=S1(=O)CCCC1,1.17 log units
17,CCN(CC)C(=O)c1ccccc1,2.26 log units
